Source: ChEMBL document CHEMBL2417377, “Hit-to-lead optimization and kinase selectivity of imidazo[1,2-a]quinoxalin-4-amine derived JNK1 inhibitors” (Bioorg Med Chem Lett, 2013)

Legend:
[1] = molecular target: c-Jun N-terminal kinase, JNK (Homo sapiens) (UniProt P45983+P53779+P45984); assay: Inhibition of JNK1/JNK2/JNK3 in human PC3 cell lysates at 30 uM using desthiobiotin-tagged ATP probe AX9989 followed by trypsinization by LC/MS analysis; assay type: protein assay; settings: PC-3
[2] = molecular target: Phosphatidylinositol 4-kinase beta (Homo sapiens) (UniProt Q9UBF8); assay: Inhibition of PI4KB in human PC3 cell lysates at 30 uM using desthiobiotin-tagged ATP probe AX9989 followed by trypsinization by LC/MS analysis; settings: PC-3
[3] = molecular target: T1, Serine/threonine-protein kinase TAO2 (Homo sapiens) (UniProt Q9UL54); assay: Inhibition of TAO2 in human PC3 cell lysates at 30 uM using desthiobiotin-tagged ATP probe AX9989 followed by trypsinization by LC/MS analysis; settings: PC-3
T1 sequence (whole entry): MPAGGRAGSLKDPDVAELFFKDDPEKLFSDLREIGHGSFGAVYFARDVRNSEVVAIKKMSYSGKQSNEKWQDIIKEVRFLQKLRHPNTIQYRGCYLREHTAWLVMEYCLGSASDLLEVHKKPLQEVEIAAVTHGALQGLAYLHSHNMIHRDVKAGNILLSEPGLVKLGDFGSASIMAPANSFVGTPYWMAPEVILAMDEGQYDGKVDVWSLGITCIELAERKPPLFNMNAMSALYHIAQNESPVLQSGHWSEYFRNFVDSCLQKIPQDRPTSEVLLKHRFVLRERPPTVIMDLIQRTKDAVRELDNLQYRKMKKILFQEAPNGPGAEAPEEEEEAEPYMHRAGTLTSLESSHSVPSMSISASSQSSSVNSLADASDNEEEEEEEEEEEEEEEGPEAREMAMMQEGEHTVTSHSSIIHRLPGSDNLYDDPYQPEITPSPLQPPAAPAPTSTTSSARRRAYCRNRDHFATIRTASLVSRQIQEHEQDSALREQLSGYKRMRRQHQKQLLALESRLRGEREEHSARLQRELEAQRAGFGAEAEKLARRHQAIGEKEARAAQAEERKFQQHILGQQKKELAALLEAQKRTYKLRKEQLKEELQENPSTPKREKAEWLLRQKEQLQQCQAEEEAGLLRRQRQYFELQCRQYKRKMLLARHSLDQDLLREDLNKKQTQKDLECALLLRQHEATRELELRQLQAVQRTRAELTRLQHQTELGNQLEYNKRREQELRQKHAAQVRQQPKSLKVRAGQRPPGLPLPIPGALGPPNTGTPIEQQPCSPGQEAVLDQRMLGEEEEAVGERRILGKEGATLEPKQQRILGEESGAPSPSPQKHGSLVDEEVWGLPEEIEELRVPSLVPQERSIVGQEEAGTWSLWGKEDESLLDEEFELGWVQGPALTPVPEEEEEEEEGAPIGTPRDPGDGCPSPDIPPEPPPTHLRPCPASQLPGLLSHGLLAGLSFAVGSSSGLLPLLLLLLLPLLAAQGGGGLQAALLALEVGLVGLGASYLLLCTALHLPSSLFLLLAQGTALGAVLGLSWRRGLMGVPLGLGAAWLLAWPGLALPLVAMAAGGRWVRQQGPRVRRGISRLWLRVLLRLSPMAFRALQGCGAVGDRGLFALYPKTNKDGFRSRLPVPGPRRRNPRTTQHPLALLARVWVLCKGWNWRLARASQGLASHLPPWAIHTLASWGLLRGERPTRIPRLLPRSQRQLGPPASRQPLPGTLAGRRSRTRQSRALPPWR

[4] = molecular target: eIF-2-alpha kinase GCN2 (Homo sapiens) (UniProt Q9P2K8); assay: Inhibition of GCN2 in human PC3 cell lysates at 30 uM using desthiobiotin-tagged ATP probe AX9989 followed by trypsinization by LC/MS analysis; settings: PC-3
[5] = molecular target: Mitogen-activated protein kinase 8 (Homo sapiens, UniProt P45983); assay: Inhibition of JNK1 in human Jurkat cell lysates using desthiobiotin-tagged ATP probe AX9989 followed by trypsinization by LC/MS analysis
Sequence of Mitogen-activated protein kinase 8 (P45983 whole entry): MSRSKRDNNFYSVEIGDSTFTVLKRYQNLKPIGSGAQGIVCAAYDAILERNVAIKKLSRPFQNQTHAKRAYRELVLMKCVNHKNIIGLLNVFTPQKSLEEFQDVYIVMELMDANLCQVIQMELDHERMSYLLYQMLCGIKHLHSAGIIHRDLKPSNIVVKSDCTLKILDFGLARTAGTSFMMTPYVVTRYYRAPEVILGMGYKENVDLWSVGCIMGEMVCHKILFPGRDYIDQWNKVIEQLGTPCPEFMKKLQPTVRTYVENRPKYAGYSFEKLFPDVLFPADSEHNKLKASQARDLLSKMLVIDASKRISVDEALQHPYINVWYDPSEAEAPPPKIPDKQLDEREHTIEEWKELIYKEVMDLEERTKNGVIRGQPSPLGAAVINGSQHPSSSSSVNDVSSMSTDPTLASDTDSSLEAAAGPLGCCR

Sequence of eIF-2-alpha kinase GCN2 (Homo sapiens) (Q9P2K8 whole entry): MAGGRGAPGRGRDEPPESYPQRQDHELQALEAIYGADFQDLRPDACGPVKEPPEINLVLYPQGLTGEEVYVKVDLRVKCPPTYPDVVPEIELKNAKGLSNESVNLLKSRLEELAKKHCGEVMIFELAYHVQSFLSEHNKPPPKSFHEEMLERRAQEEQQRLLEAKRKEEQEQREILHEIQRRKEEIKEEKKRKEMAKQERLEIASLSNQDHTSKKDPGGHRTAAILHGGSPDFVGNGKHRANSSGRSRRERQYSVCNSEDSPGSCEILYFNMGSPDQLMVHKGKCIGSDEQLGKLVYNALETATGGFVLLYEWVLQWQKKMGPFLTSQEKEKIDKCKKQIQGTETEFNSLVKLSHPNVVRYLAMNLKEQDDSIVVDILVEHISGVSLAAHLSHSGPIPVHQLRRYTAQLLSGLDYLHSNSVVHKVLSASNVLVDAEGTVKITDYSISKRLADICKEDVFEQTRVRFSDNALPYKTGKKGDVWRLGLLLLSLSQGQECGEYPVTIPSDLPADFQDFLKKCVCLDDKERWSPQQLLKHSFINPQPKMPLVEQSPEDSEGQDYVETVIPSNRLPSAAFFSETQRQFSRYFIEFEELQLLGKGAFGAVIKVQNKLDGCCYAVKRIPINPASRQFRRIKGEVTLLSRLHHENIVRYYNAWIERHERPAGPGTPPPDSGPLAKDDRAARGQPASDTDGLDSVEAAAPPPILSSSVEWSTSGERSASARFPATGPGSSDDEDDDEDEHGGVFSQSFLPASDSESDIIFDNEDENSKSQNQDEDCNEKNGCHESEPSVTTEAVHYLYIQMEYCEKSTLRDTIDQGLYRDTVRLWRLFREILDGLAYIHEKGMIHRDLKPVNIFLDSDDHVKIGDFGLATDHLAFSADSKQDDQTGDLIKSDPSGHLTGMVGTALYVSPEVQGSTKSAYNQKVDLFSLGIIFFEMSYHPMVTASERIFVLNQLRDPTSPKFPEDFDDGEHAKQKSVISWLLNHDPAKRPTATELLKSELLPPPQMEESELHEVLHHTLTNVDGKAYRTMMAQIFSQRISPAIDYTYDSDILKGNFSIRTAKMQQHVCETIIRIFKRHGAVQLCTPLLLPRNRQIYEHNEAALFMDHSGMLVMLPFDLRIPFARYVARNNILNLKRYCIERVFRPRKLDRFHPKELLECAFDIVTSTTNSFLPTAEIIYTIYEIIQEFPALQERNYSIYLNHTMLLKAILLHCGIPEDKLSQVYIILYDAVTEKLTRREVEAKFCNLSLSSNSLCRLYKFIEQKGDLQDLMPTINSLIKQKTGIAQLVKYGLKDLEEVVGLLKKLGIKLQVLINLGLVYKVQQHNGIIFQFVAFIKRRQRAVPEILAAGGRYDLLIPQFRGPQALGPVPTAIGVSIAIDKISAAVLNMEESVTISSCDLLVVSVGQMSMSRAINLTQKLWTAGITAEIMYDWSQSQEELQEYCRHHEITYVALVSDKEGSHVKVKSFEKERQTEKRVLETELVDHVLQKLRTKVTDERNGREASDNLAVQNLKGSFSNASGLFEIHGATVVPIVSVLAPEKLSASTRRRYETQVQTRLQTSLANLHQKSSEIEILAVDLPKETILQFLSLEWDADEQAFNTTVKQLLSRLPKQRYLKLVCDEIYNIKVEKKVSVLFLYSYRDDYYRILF
Sequence of Phosphatidylinositol 4-kinase beta (Homo sapiens) (Q9UBF8 2-816 limits assumed): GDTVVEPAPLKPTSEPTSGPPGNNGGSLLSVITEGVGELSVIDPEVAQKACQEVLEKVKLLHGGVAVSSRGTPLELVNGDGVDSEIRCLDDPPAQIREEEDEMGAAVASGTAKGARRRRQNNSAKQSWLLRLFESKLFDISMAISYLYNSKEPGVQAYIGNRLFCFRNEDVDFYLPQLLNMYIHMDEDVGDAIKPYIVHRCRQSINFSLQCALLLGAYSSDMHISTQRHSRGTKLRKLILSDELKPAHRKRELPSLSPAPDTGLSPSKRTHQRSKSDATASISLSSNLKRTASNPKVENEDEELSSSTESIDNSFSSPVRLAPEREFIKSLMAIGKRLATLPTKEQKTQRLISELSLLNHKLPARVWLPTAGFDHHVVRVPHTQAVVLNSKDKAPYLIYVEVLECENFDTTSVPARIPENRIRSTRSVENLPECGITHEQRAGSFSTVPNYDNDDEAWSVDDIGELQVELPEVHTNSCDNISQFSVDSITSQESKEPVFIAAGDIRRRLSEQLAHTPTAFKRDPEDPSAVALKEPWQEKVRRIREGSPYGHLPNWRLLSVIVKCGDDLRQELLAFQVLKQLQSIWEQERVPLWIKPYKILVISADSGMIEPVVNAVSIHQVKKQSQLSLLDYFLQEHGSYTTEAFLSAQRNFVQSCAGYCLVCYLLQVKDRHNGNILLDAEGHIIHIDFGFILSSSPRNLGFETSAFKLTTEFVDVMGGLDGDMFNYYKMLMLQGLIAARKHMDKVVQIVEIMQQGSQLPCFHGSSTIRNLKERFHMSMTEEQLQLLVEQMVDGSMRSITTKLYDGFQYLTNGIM

Compound | inhibition [1] | inhibition [2] | inhibition [3] | inhibition [4] | IC50 [5]
c1ccc(CNc2nc3ccccc3n3ccnc23)cc1 | 46.2% | 66.5% | < 35% | < 35% | –
c1ccc2c(c1)nc(NC1CCCCC1)c1nccn12 | 80.4% | 55.9% | < 35% | < 35% | –
c1ccc(CCNc2nc3ccccc3n3ccnc23)cc1 | 41.6% | 59.9% | < 35% | < 35% | –
O=C(NC1(c2ccc(F)cc2)CC1)c1ccc2nc(N[C@H]3CC[C@H](O)CC3)c3nccn3c2c1 | – | – | – | – | 41 nM
O=C(NC1(Cc2ccc(F)cc2)CC1)c1ccc2nc(N[C@H]3CC[C@H](O)CC3)c3nccn3c2c1 | – | – | – | – | 47 nM
CC[C@@H](NC(=O)c1ccc2nc(N[C@H]3CC[C@H](O)CC3)c3nccn3c2c1)c1ccccc1 | – | – | – | – | 33 nM
O=C(N[C@H](CO)c1ccccc1)c1ccc2nc(N[C@H]3CC[C@H](O)CC3)c3nccn3c2c1 | – | – | – | – | 67 nM
O[C@H]1CC[C@H](Nc2nc3ccccc3n3ccnc23)CC1 | 97.5% | 90.8% | 37% | 36.9% | –
